Measured values taken from patent US9765113B2, “Methods and agents for the treatment of cancer” (INTERK PEPTIDE THERAPEUTICS LIMITED, priority 2003, dated 2017).
Read-outs that look alike come from different tables or passages of the source. Ends that are not written are not given here.

Key:
[1] = test system: ERK2; assay: ELISA assay for detection of MAP kinase binding to biotinylated peptide; details: result in words
Protocol: (§1) An assay was developed for detecting the ability of MAP kinases to bind with a peptide agent in solution.
(§2) Briefly, the MAP kinase is added to an eppendorf tube containing a biotinylated test peptide in phosphate buffered saline (PBS) at pH 7.4. The mixture is allowed to stand at room temperature for 10 minutes with occasional mixing by gentle inversion of the tube. The MAP kinase/test peptide mixture is then transferred to a pre-washed (PBS×3×100 μl) 96-well streptavidin coated ELISA microtitre plate and allowed to stand for 60 minutes at room temperature. At the end of the 60 minute period, the MAP kinase/test peptide mixture is tipped from the ELISA plate and the wells washed 3 times with wash solution (PBS+0.05% Tween−20).
(§3) Primary antibody detection for the MAP kinase is then added to the test wells and the ELISA plate is allowed to stand for a further 30 minutes at room temperature before the antibody solution is decanted from the plate and the wells again washed with the wash solution. Optimal dilutions of primary detection antibody are pre-determined for each target MAP kinase. Alkaline-phosphatase or other enzyme conjugated anti-primary species antibody at a dilution of 1:2000 v/v is subsequently added to the wells and the microtitre plate is allowed to stand for another 30 minutes at room temperature, before the washing step is repeated and phosphatase detection reagent is added to the wells and the colour reaction allowed to develop. The wells are read at 405 nm using a microplate reader (Bio-Rad). Controls comprise non-biotinylated peptide and biotinylated peptide alone

[2] = test system: HT29 colon cancer xenografts; assay: In vivo tumour growth of HT29 colon cancer xenografts; parameters: species or system Balb/c athymic mice
Protocol: Balb/c female athymic mice (8 weeks of age obtained from the Animal Resource Centre, Perth, Western Australia) were maintained under pathogen-free conditions and fed standard mouse chow and water ad lib. The mice were divided into groups of ten each. Mice in different groups were marked by ear notching. Briefly, the mice were anaesthetised using isoflurothane by inhalation and their ears marked using a surgical punch. After a recovery period of 48 hours, the mice in each group were injected with 1×10^6 HT29 colon cancer cells in standard DMEM culture medium subcutaneously dorsally behind the right shoulder using a 21-gauge needle. Animal weights and tumour sizes (breadth and length measured with callipers) were recorded weekly. Mice were sacrificed by CO2 asphyxiation and tumour mass excised for measurement.
Mice were injected twice weekly for four weeks commencing 10 days after tumour cell inoculation with DMEM, signal peptide ([…]) (designated “carrier”) (SEQ ID No: 1) or the […] (IK-1) (SEQ ID No: 19) peptide agent, and tumour growth was compared to an untreated control group.
Colon cancer inhibition by peptide […] (IK2P) (SEQ ID No: 18) administered intravenously to colon tumour bearing Balb/c athymic mice as per the protocol described above, is shown in FIG. 20. Colon tumour xenografts were achieved by injection of 1×10^6 HT29 colon cancer cells as above. […]

[3] = test system: HUVEC cells; assay: Cell proliferation assay using MTT; format: cell-based, human
Protocol: The ability of the 10(4) peptide […] (SEQ ID No: 7) linked to the signal peptide […] (SEQ ID No: 1) to inhibit the proliferation of the above cell lines was assessed using the cell proliferation assay described in Example 2.1.

[4] = molecular target: T1, ERK1 (Homo sapiens, UniProt P27361); assay: ELISA assay for detection of MAP kinase binding to biotinylated peptide; details: FIG. 2
T1 construct: GST (N, cleaved yes); made in house
Protocol: as §1, §2, §3

[5] = test system: HUVEC; assay: Annexin-V-FITC FACScan apoptosis analysis; details: FIG. 23
Protocol: (§4) The killing of HT29 cancer cells compared to normal keratinocytes, human umbilical vein epithelial cells (HUVECs) and skin fibroblasts by the peptide […] (IK2) (SEQ ID No: 16) was assessed. Briefly, cells were recovered by trypsinisation and resuspended into fresh culture medium. Cell viability was determined (0.4% Trypan Blue in phosphate buffered saline (PBS) 1:1 v/v), and 0.75×10^6 viable cells were passaged into a 25 cm^2 tissue culture flask then cultured for 24 hours at 37° C., 5% CO2 in air. Immediately prior to the addition of the IK2 peptide, culture media was removed by decanting and replaced with fresh media (2.0 mls minus volume addition of IK2 peptide). The treated cells were then cultured for 16 hours.
(§5) Cells were prepared as above for the positive control. Staurosporine (Sigma #S5921) was added to the culture media to a final concentration of 1 μM and the cells exposed to the apoptosis inducer for a maximum of 1-2 hours. For a negative control, vehicle alone (normal saline) was added to cell culture media.
(§6) Apoptotic cells were detected by FACScan analysis utilising Annexin-V-FITC (Sigma kit #A2214) to indicate apoptosis. For the analysis, cells were recovered by trypsinisation as above, and resuspended (˜1×10^6 cells/ml) into 1× binding buffer (Sigma #B9796). 500 μl of cell suspension was then aliquoted into a 10 ml plastic test tube, prior to the addition of 5 μl of Annexin-V FITC and 10 μl of propidium iodide (Sigma #P2667). Cells were incubated at room temperature for 10 minutes in the dark and fluorescence determined by flow cytometer. Living cells are not stained by either Annexin-V-FITC or propidium iodide, while early apoptosis is indicated by staining with Annexin-V-FITC only and necrotic cells are stained by both Annexin-V-FITC and propidium iodide.

[6] = test system: normal keratinocytes (KC); assay: Annexin-V-FITC FACScan apoptosis analysis; details: FIG. 23
Protocol: as §4, §5, §6

[7] = test system: skin fibroblasts (SkinF); assay: Annexin-V-FITC FACScan apoptosis analysis; details: skin fibroblast (SkinF), FIG. 23
Protocol: as §4, §5, §6

[8] = test system: HT29 colon cancer cells; assay: Cell proliferation assay using MTT; details: for inhibition of proliferation (in words): relative to untreated control cells
Protocol: (§7) An assay using the substrate methylthiazoletetrazolium (MTT) was utilised to determine the inhibitory affect of peptide agents on cancer cell proliferation. MTT substrate (CAT No. M-2128, Sigma) is cleaved in growing cells to yield a water insoluble salt. After solubilisation of the salt, a coloured product is produced that allows quantitation of the proliferative activity of the cultured cells. To prepare the MTT solution for use in the assay, 100 mg of MTT is mixed with 20 ml of PBS at pH 7.4. The resulting solution is filter sterilised (0.2 μM syringe filter) and stored at 4° C. protected from light until use.
(§8) Cells from the colon cancer cell line HT29 were seeded into wells of a 96-well microlitre plate in Dulbecco's Modified Eagle's Medium (DMEM) supplemented with 10% foetal bovine serum, glutamine, Hepes, and antibiotics at a concentration of 2,000 cells/100 μl and cultured for 24 hours in 5% CO2 in air at 37° C. After the 24 hour incubation period the test agent (solubilised in complete DMEM) is added to test wells to a final media volume of 200 μl and the microtitre plate is incubated for a further 48 to 72 hour period.
(§9) A 20 μl volume of the MTT solution prepared as above is then added to the test wells and the microtitre plate incubated for further 3 hours in 5% CO2 in air at 37° C. The plate is subsequently centrifuged for 5 minutes at 2,000 rpm in a microplate carrier. The supernatant is then removed from the wells using a multichannel pipette leaving MTT crystals in the wells.
(§10) To the wells is then added 150 μl of 6:1 v/v DMSO/glycine solution (0.1 M glycine and 0.1 M NaCl adjusted to pH 10.5 using NaOH) and the MTT crystals are dissolved by gently vortexing the microtitre plate. Absorbance is read at 550 nm using a microtitre plate reader.

[9] = test system: HT29 colon cancer cells
Protocol: as §7, §8, §9, §10

[10] = molecular target: T2, cytoplasmic domain of β6 (Homo sapiens, UniProt P18564); assay: ELISA binding of MAP kinase fragments to the cytoplasmic domain of β6; details: FIG. 1 and FIG. 4
T2 sequence (P18564 737-788): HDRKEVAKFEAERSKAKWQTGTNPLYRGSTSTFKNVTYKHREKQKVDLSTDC
Protocol: Primary antibody detection for the MAP kinase is then added to the test wells and the ELISA plate is allowed to stand for a further 30 minutes at room temperature before the antibody solution is decanted from the plate and the wells again washed with the wash solution. Optimal dilutions of primary detection antibody are pre-determined for each target MAP kinase. […] The wells are read at 405 nm using a microplate reader (Bio-Rad). […]
The binding of various MAP kinases to the cytoplasmic domain of β6 was tested using the assay described in Example 1.1. […] (SEQ ID No: 26), and the binding interaction detected using the anti-β6 antibody R6G9. […]

[11] = test system: HT29 colon cancer cells; assay: Annexin-V-FITC FACScan apoptosis analysis; format: cell-based; details: peptide 16 hours, staurosporine 1 μM 1-2 hours
Protocol: as §4, §5
Apoptotic cells were detected by FACScan analysis utilising Annexin-V-FITC (Sigma kit #A2214) to indicate apoptosis. For the analysis, cells were recovered by trypsinisation as above, and resuspended (˜1×10^6 cells/ml) into 1× binding buffer (Sigma #B9796). […] Cells were incubated at room temperature for 10 minutes in the dark and fluorescence determined by flow cytometer. […]

[12] = test system: cancer cell lines; assay: Proliferation of cancer cell lines with signal peptide alone; format: cell-based; details: any cancer cell lines tested, data not shown

T1 sequence (P27361 whole entry, species assumed): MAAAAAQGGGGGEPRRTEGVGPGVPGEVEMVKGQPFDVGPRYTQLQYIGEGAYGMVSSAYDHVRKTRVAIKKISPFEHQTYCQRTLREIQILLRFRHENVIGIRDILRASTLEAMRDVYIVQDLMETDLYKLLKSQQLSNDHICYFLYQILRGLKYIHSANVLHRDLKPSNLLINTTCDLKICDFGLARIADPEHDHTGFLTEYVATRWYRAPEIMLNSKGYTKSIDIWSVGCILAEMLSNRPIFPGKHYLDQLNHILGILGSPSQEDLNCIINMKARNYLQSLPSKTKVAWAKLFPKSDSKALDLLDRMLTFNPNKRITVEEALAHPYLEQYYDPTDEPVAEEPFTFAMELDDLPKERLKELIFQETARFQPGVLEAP

RARAKNPLYK
binding to ERK2 [1]: still bound by ERK2

RSRARNPLYR
binding to ERK2 [1]: still bound by ERK2

AAVALLPAVLLALLA [nfkb, reference compound]
mouse weight at day 28 ([2]; intra-tumoural injections, day 28 relative to time 0 / control group, FIG. 18B): marked weight loss

AAVALLPAVLLALLARSKAKWQTGTNPLYR [IK-1]
impact on proliferation of normal HUVEC cells ([3]; HUVEC, MTT): essentially no impact | mouse weight at day 28 ([2]; mouse, in vivo): Substantially no difference

O=c1[nH]cc(F)c(=O)[nH]1 [5-FU, 5-Fluorouracil, reference compound]
impact on proliferation of normal HUVEC cells [3]: toxicity

RSKAKWQTGTNPLYR
binding to ERK1 [4]: bind | binding to ERK2 [1]: bind

AAVALLPAVLLALLARSKAKNPLYR [IK2]
induction of apoptosis [5]: essentially no apoptosis | induction of apoptosis [6]: essentially no apoptosis | induction of apoptosis [7]: essentially no apoptosis

Alkyl(4): stearic acid coupled to the RSKAKNPLYR peptide (also: stearic acid coupled (site not given here))
inhibition of proliferation (in words) ([8]; HT29, MTT): effective

VTVLALGALAGVGVGRSKAKWQTGTNPLYR [Frag 5B3]
proliferation of the cells relative to control cells ([8]; HT29, MTT, higher concentration of the peptides used, FIG. 5): about 37%

AAVALLPAVLLALLARSRARNPLYR [nf-b5-10-4]
degree of inhibition compared with nf-b5-frag 5 ([8]; HT29, MTT, FIG. 14G): greater degree of inhibition | inhibition of proliferation (in words) ([8]; HT29, MTT): inhibited proliferation

AAVALLPAVLLALLAPRSKAKNPLYR [nfkb10(4)p]
impact on proliferation of normal HUVEC cells [3]: relatively minimal | inhibition of proliferative response compared to 5-FU [9]: more effective

GRKKRRQRRRPQCG [TAT-G, reference compound]
toxicity of carrier peptide alone ([8]; HT29, FIG. 8 and FIG. 9): some toxicity

RSKAKNPLYR [10(4)]
binding to ERK2 [1]: binds to ERK2 | binding to ERK2 ([1]; listed as RSKAKNPLYR): still bound by ERK2

KEKLKNPLFK [β2 (10(4)]
binding to ERK2 [1]: bound by ERK2

HRDLKPSNLAVNEDCELKILDFGLAR [p38 MAP kinase fragment]
binding to the cytoplasmic domain of β6 [10]: bound

CN[C@@H]1C[C@H]2O[C@@](C)([C@@H]1OC)n1c3ccccc3c3c4c(c5c6ccccc6n2c5c31)C(=O)NC4 [staurosporin, Staurosporine, reference compound]
induction of apoptosis [11]: apoptosis was induced | induction of apoptosis [5]: induced apoptosis | induction of apoptosis [6]: induced apoptosis | induction of apoptosis [7]: induced apoptosis

AAVALLPAVLLALLARSKAKNPLYR (also: acetate salt) [nfkb10(4)acetate]
inhibition of proliferation at the highest concentration ([8]; HT29, MTT, highest concentration of peptide employed): total inhibition

AAVALLPAVLLALLAP [nfkbp, K-FGF signal peptide]
effect of signal peptide alone on proliferation [12]: essentially no effect
